In one test the test system is HER2. Nature of the test: Time to client protein degradation by immunoblot, BT-474 cells. The note with it: 1 uM IPI-504. Format: cell-based, human. As to the method: FIG. 7B is panel of immunoblot images showing the levels of ALK, phospho-ALK and cleaved-PARP in H3122 cells, HER2 in BT474 cells, and EGFR in H1650 cells at various time points after IPI-504 (1 uM) treatment. Proteins levels were monitored by immunoblotting.
Rearrangements at the ALK locus have been reported in about 5% of NSCLC patients, forming an oncogenic fusion of the N-terminus of EML4 with the C-terminal kinase domain of ALK (Soda, M. et al. (2007) Nature 448: 561-6). To determine whether the EML4-ALK fusion protein is a client protein of Hsp90, we incubated the EML4-ALK-expressing NSCLC cell line H3122 with increasing concentrations of IPI-504 and measured the abundance of total and phosphorylated ALK protein by ELISA (FIG. 7a). In this experiment, virtually all ALK protein is degraded at concentrations above 50 nM IPI-504. The degradation IC50 measured (4 nM) makes this the most sensitive Hsp90 client protein we have encountered. […] To further confirm that EML4-ALK is indeed a client of Hsp90, we performed immunoprecipitations with an antibody directed against Hsp90a, and detected a protein band at the predicted molecular weight ([…]) with an ALK antibody in Hsp90 immunoprecipitates from H3122 cells but not control cells (FIG. 7c, lane 1 and 3). […]
Background: Immunoblotting shows a protein as a band on a membrane.

In test [1] the test system is tumors of smoker patients. The test can be described thus: Clinical trial, response to IPI-504 by smoking status. Format: in vivo, human. The source says:
This example describes the results from a clinical trial that assessed the efficacy of IPI-504, alone or in combination with docetaxel, in smoker patients.
FIG. 27 depicts a waterfall plot showing responses to IPI-504 according to smoking status. The y-axis of FIG. 27 represents % of tumor volume change from baseline. Each bar represents one patient.

The subject of another test is AKT/mTOR pathway. The test can be described thus: Immunoblot of BON-1 cells, IPI-504, rapamycin or both. Format: cell-based. The note with it: BON-1, 6 or 24 hours, 1 μM IPI-504, 100 nM rapamycin or both. As to the method:
BON-1 cells were incubated for either 6 hours or 24 hours with 1 uM of IPI-504, 100 nM rapamycin (Sigma) or the combination of both. 50 ug of cell lysate was immunoblotted for pAKT, total AKT, pS6, total S6, pERK 1/2 (Cell Signaling), IGF-1Rb, Hsp70, and b-actin (Santa Cruz). Image analysis and band quantization were performed with the Bio-Rad Versa Doc system. The expression of GADPH was used as a control for protein loading.
Since the PI3K/Akt/mTOR pathway is activated in neuroendocrine tumors, GEP-NET cells were treated with IPI-504 and drugs which inhibit the AKT/mTOR pathway to look for combination effects. In one experiment, BON-1 cells were incubated for 6 or 24 hours with 1 μM IPI-504, 100 nM rapamycin or the combination of both. Fifty μg of cell lysate was immunoblotted for pAKT, total AKT, pS6, IGF-1Rβ, Hsp70, and β-actin.

Molecules are shown by their SMILES. Structures can show the parent of a compound that is named as a salt.

From patent US20110118298A1, “COMPOSITIONS, KITS, AND METHODS FOR IDENTIFICATION, ASSESSMENT, PREVENTION, AND THERAPY OF CANCER” (INFINITY PHARMACEUTICALS, INC., priority 2009, published 2011) come the findings set out here.

`C=CCNc1c(O)cc2c(O)c1C[C@@H](C)C[C@H](OC)[C@H](O)[C@@H](C)/C=C(\C)[C@H](OC(N)=O)[C@@H](OC)/C=C\C=C(/C)C(=O)N2` [IPI-504, retaspimycin hydrochloride]: in the test on HER2, the “time for most of the HER2 to be degraded” value was “about 24 h”. In addition, the “patients showing a partial response (PR)” value in test [1] (out of 21 smoker patients) was 6 patients. In addition, in test [1] (smoker patients), the “objective response rate (ORR)” value is recorded as 29%. For the same compound, the “effect on AKT and signalling downstream of mTOR” value with AKT/mTOR pathway was “AKT degradation”.
